Where “and” joins values, the source holds several entries; their conditions need not be identical. Equal values may be shown once. ± gives the expanded uncertainty stated by the source.
Legend:
[1] = heat capacity at constant pressure per volume; xn = mol fraction of the nth substance listed; details: 101 kPa, Liquid, Large sample (1 g) DSC, x1 = 0.497
[2] = refractive index (other wavelength) (dimensionless); xn = mol fraction of the nth substance listed; details: 101 kPa, Liquid, Wavelength=632.8 nm, Standard Abbe refractometry

N#Cc1ccccc1 [benzonitrile] + CCCCCCCCC
[1]
Details | heat capacity
278.51 K | 1795700 ± 36000 J/K/m3
279.06 K | 1803600 ± 36000 J/K/m3
279.55 K | 1808700 ± 36000 J/K/m3
280 K | 1811600 ± 36000 J/K/m3
280.41 K | 1816400 ± 36000 J/K/m3
280.77 K | 1824500 ± 36000 J/K/m3
281.11 K | 1829200 ± 37000 J/K/m3
281.41 K | 1830500 ± 37000 J/K/m3
281.68 K | 1829700 ± 37000 J/K/m3
281.93 K | 1835700 ± 37000 J/K/m3
282.15 K | 1841800 ± 37000 J/K/m3
282.35 K | 1845300 ± 37000 J/K/m3
282.53 K | 1847600 ± 37000 J/K/m3
282.7 K | 1849700 ± 37000 J/K/m3
282.85 K | 1856600 ± 37000 J/K/m3
282.98 K | 1859600 ± 37000 J/K/m3
283.1 K | 1862200 ± 37000 J/K/m3
283.21 K | 1866700 ± 37000 J/K/m3
283.31 K | 1869700 ± 37000 J/K/m3
283.4 K | 1868700 ± 37000 J/K/m3
283.49 K | 1873100 ± 38000 J/K/m3
283.56 K | 1868300 ± 37000 J/K/m3
283.69 K | 1880300 ± 38000 J/K/m3
283.88 K | 1913600 ± 38000 J/K/m3
283.95 K | 1908800 ± 38000 J/K/m3
284.03 K | 1934300 ± 40000 J/K/m3
284.09 K | 1950500 ± 40000 J/K/m3
284.11 K | 1960300 ± 40000 J/K/m3
284.12 K | 1970200 ± 41000 J/K/m3
284.13 K | 1977600 ± 41000 J/K/m3
284.15 K | 1985800 ± 42000 J/K/m3
284.16 K | 1998500 ± 40000 J/K/m3
284.18 K | 2005300 ± 43000 J/K/m3
284.19 K | 2006000 ± 43000 J/K/m3
284.2 K | 2015800 ± 43000 J/K/m3
284.21 K | 2022500 ± 43000 J/K/m3
284.22 K | 2037100 ± 44000 J/K/m3
284.23 K | 2046300 ± 45000 J/K/m3
284.24 K | 2060600 ± 46000 J/K/m3
284.25 K | 2071500 ± 46000 J/K/m3
284.26 K | 2047100 ± 46000 J/K/m3 [middle of 6 runs]
284.27 K | 1937800 ± 46000 J/K/m3 [middle of 5 runs]
284.28 K | 1815400 ± 42000 J/K/m3 and 1840700 ± 42000 J/K/m3
284.29 K | 1794400 ± 42000 J/K/m3
284.31 K | 1776700 ± 44000 J/K/m3
284.33 K | 1765400 ± 47000 J/K/m3
284.36 K | 1750800 ± 44000 J/K/m3
284.42 K | 1731200 ± 35000 J/K/m3
284.5 K | 1715800 ± 34000 J/K/m3
284.61 K | 1703600 ± 34000 J/K/m3
284.69 K | 1698600 ± 34000 J/K/m3
284.79 K | 1693000 ± 34000 J/K/m3
284.9 K | 1688700 ± 34000 J/K/m3
284.97 K | 1686600 ± 34000 J/K/m3
285.12 K | 1680400 ± 34000 J/K/m3
285.21 K | 1677900 ± 34000 J/K/m3
285.31 K | 1676100 ± 34000 J/K/m3
285.43 K | 1674300 ± 34000 J/K/m3
285.55 K | 1671100 ± 33000 J/K/m3
285.68 K | 1668100 ± 33000 J/K/m3
285.83 K | 1666100 ± 33000 J/K/m3
286 K | 1665000 ± 33000 J/K/m3
286.18 K | 1662900 ± 33000 J/K/m3
286.38 K | 1659800 ± 33000 J/K/m3
286.6 K | 1659100 ± 33000 J/K/m3
286.85 K | 1655600 ± 33000 J/K/m3
287.12 K | 1655500 ± 33000 J/K/m3
287.42 K | 1652700 ± 33000 J/K/m3
287.75 K | 1650500 ± 33000 J/K/m3
288.12 K | 1649500 ± 33000 J/K/m3
288.53 K | 1647700 ± 33000 J/K/m3
288.97 K | 1645800 ± 33000 J/K/m3
289.51 K | 1644500 ± 33000 J/K/m3
290.01 K | 1643400 ± 33000 J/K/m3
290.61 K | 1641800 ± 33000 J/K/m3
291.29 K | 1641000 ± 33000 J/K/m3
292.03 K | 1639400 ± 33000 J/K/m3
292.42 K | 1639400 ± 33000 J/K/m3
292.84 K | 1638700 ± 33000 J/K/m3
293.28 K | 1638100 ± 33000 J/K/m3
293.74 K | 1637800 ± 33000 J/K/m3
294.24 K | 1637400 ± 33000 J/K/m3
294.74 K | 1636900 ± 33000 J/K/m3
295.28 K | 1636500 ± 33000 J/K/m3
295.85 K | 1636400 ± 33000 J/K/m3
296.45 K | 1635800 ± 33000 J/K/m3
297.07 K | 1635800 ± 33000 J/K/m3
297.73 K | 1635500 ± 33000 J/K/m3
298.41 K | 1635100 ± 33000 J/K/m3
299.14 K | 1635100 ± 33000 J/K/m3
299.89 K | 1634900 ± 33000 J/K/m3
300.7 K | 1634900 ± 33000 J/K/m3
301.55 K | 1634800 ± 33000 J/K/m3
302.43 K | 1635000 ± 33000 J/K/m3
303.36 K | 1635100 ± 33000 J/K/m3
304.34 K | 1635200 ± 33000 J/K/m3
305.38 K | 1635400 ± 33000 J/K/m3
306.45 K | 1635600 ± 33000 J/K/m3
307.59 K | 1635800 ± 33000 J/K/m3
308.79 K | 1636100 ± 33000 J/K/m3
310.05 K | 1636600 ± 33000 J/K/m3
311.36 K | 1637200 ± 33000 J/K/m3
312.75 K | 1637800 ± 33000 J/K/m3
314.12 K | 1638500 ± 33000 J/K/m3

[2]
Details | refractive index
278.24 K, x1 = 1 | 1.5324 ± 0.0008
279.25 K, x1 = 1 | 1.5319 ± 0.0008
281.33 K, x1 = 1 | 1.5308 ± 0.0008
282.96 K, x1 = 1 | 1.5301 ± 0.0008
284.3 K, x1 = 1 | 1.5294 ± 0.0008
285.4 K, x1 = 0.0945 | 1.4145 ± 0.0008
285.4 K, x1 = 0.2042 | 1.4234 ± 0.0008
285.4 K, x1 = 0.2947 | 1.4313 ± 0.0008
285.4 K, x1 = 0.3866 | 1.4402 ± 0.0008
285.4 K, x1 = 0.4969 | 1.452 ± 0.0008
285.4 K, x1 = 0.5967 | 1.4642 ± 0.0008
285.4 K, x1 = 0.6844 | 1.4759 ± 0.0008
285.4 K, x1 = 0.7992 | 1.4932 ± 0.0008
285.4 K, x1 = 0.865 | 1.504 ± 0.0008
285.43 K, x1 = 1 | 1.5288 ± 0.0008
